How the values were obtained:
Assay in all cases: relative viability (nuclei count vs DMSO), 5 days (fraction); higher = more cells survive
CUDC-101 + Bortezomib = compound: C#Cc1cccc(Nc2ncnc3cc(OC)c(OCCCCCCC(=O)NO)cc23)c1 [CUDC-101] + CC(C)C[C@H](NC(=O)[C@H](Cc1ccccc1)NC(=O)c1cnccn1)B(O)O [Bortezomib] (partner 0.002 µM)
Outline: (§1)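 Cells from lung cancer lines were seeded into 1536-well plates and, one day later, dosed by pin tool. Treatments were either a single drug or a fixed dose of an anchor drug with five library-drug doses (not always all listed) in √10 steps. After 5 days, nuclei were stained in a one-step fixation (final 0.05% Triton X-100, 1% formaldehyde, 1 ug/ml Hoechst) and counted on 4× images, and relative viability is the treated-to-vehicle nuclei ratio, as the median of duplicate plates.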

[1] = compound: C1=CC=C2C(=C1)N=C(S2)C(C#N)C3=NC(=NC=C3)NCCC4=CN=CC=C4 + C[C@]1(O)C[C@@H](c2nc(-c3ccc4ccc(-c5ccccc5)nc4c3)c3c(N)nccn32)C1 [Linsitinib] (partner 1 µM)
Outline: as §1

Vandetanib + Linsitinib = compound: COc1cc2/c(=N/c3ccc(Br)cc3F)nc[nH]c2cc1OCC1CCN(C)CC1 [Vandetanib] + C[C@]1(O)C[C@@H](c2nc(-c3ccc4ccc(-c5ccccc5)nc4c3)c3c(N)nccn32)C1 [Linsitinib] (partner 1 µM)
Outline: as §1

Vandetanib + OSI-027 = compound: COc1cc2/c(=N/c3ccc(Br)cc3F)nc[nH]c2cc1OCC1CCN(C)CC1 [Vandetanib] + COc1cccc2cc(-c3nc([C@H]4CC[C@H](C(=O)O)CC4)n4ncnc(N)c34)[nH]c12 [OSI-027] (partner 0.5 µM)
Outline: as §1

Cell Line	relative viability (CUDC-101 + Bortezomib; first compound 0.01 µM)	relative viability (CUDC-101 + Bortezomib; first compound 0.03162 µM)	relative viability (CUDC-101 + Bortezomib; first compound 0.1 µM)	relative viability (CUDC-101 + Bortezomib; first compound 0.3162 µM)	relative viability (CUDC-101 + Bortezomib; first compound 1 µM)	relative viability ([1]; first compound 0.005 µM)	relative viability ([1]; first compound 0.01581 µM)	relative viability ([1]; first compound 0.05 µM)	relative viability ([1]; first compound 0.1581 µM)	relative viability ([1]; first compound 0.5 µM)	relative viability (Vandetanib + Linsitinib; first compound 0.02 µM)	relative viability (Vandetanib + Linsitinib; first compound 0.06325 µM)	relative viability (Vandetanib + Linsitinib; first compound 0.2 µM)	relative viability (Vandetanib + Linsitinib; first compound 0.6325 µM)	relative viability (Vandetanib + Linsitinib; first compound 2 µM)	relative viability (Vandetanib + OSI-027; first compound 0.02 µM)	relative viability (Vandetanib + OSI-027; first compound 0.06325 µM)	relative viability (Vandetanib + OSI-027; first compound 0.2 µM)	relative viability (Vandetanib + OSI-027; first compound 0.6325 µM)	relative viability (Vandetanib + OSI-027; first compound 2 µM)
NCI-H1975	0.418	0.361	0.427	0.362	0.165	0.823	1.07	0.972	1.07	0.738	0.902	0.801	0.897	0.803	0.902	0.719	0.728	0.77	0.683	0.612
NCI-H1993	1.19	1.12	0.782	0.995	0.611	0.861	0.784	0.749	0.749	0.681	0.803	0.639	0.662	0.762	0.675	0.521	0.573	0.557	0.637	0.552
NCI-H2023	0.932	0.935	1.08	1.26	0.844	0.743	0.695	0.68	0.671	0.701	0.698	0.607	0.676	0.589	0.485	0.375	0.34	0.429	0.37	0.41
201T	1.08	1.06	1.09	1.11	1.08	1.07	1.01	1.06	1.06	0.974	1.08	0.936	0.989	0.944	1.01	0.69	0.664	0.719		0.672
SW 1573	1.23	1.13	1.13	1.27	0.914	0.725	0.776	0.792	0.895	0.745	0.832	0.777	0.749	0.741	0.794	0.508	0.57	0.653	0.634	0.534
NCI-H647	1.08	0.948	0.871	0.724	0.119		1.17	1.16	1.25	0.976	1.1	1.13	1.08	1.2	1.14	0.572	0.554	0.73	0.596	0.674
HCC-78	0.462	0.383	0.588	0.342	0.175	0.492	0.423	0.33	0.582	0.549	0.414	0.438	0.567	0.579	0.337	0.374	0.39	0.42	0.364	0.361
